In patent US20090312374A1, “DERIVATIVES OF 4,6-DISUBSTITUTED 1,2,4-TRIAZOLO- 1,3,4-THIADIAZOLE, A PROCESS AND USES THEREOF” (UNIVERSITY OF MYSORE, priority 2005, published 2009):

Legend:
Breast cancer = experiment: Immunofluorescence (Hoechst 33258) apoptosis, TN and NC series, breast cancer; assay type: cell-based; details: FIG. 1
Excerpt: (§1) Subsequently, the cells were washed with PBS.

H2AX = experiment: Western blot of isolated histones probed with H2AX antibody; assay type: cell-based; details: HeLa cells, 24 h compound treatment
Experimental: HeLa cells (3×10^6 cells per 90-mm dish) were seeded overnight, and histones were extracted from 24 h of compound treated cells as reported previously. In brief, cells were harvested, washed in ice-cold buffer A (150 mM KCl, 20 mM HEPES, pH 7.9, 0.1 mM EDTA, and 2.5 mM MgCl2) and lysed in buffer A containing 250 mM sucrose and 1% (v/v) Triton X-100. Nuclei were recovered by centrifugation and washed, and proteins were extracted for 1 h using 0.25 M HCl. The proteins were precipitated with 25% (w/v) trichloroacetic acid and sequentially washed with ice-cold acidified acetone (20 μl of 12 N HCl in 100 ml of acetone) and acetone, air-dried, and dissolved in the sample buffer (5.8 M urea, 0.9 M glacial acetic acid, 16% glycerol, and 4.8% 2-mercaptoethanol). The histones (equal amounts in all lanes) were resolved on SDS PAGE gel.
The western blot analysis was done using the isolated histones and probed with H2AX antibody and the results say that 2 of the compounds (NC-2 and NC-5) get hyperphosphorylated.

[1] = system: cervical cancer cell line; experiment: Immunofluorescence (Hoechst 33258) apoptosis, TN and NC series, cervical cancer; assay type: cell-based; details: versus breast cancer and normal cells; FIG. 1
Excerpt: as §1

[2] = system: advanced squamous-cell cervical cancer; details: 125 mg/m2 weekly, cited from earlier work
[3] = twenty-one patients, advanced squamous-cell cervical cancer

## CCc1nnc2sc(C3CCc4cc(F)ccc4O3)nn12 (stereo not drawn) [TN-2, 6-(6-fluorochroman-2-yl)-3-ethyl-[1,2,4]triazolo[3,4-b][1,3,4]thiadiazole]
Breast cancer
  extent of apoptosis: little apoptosis

## CCc1nnc2sc(-c3cccc(Cl)c3Cl)nn12 [NC-2, 6-(2,3-dichlorophenyl)-3-ethyl-[1,2,4]triazolo[3,4-b][1,3,4]thiadiazole]
H2AX
  H2AX phosphorylation (western blot of isolated histones): hyperphosphorylated
[1]
  selected as specific to cervical cancer cell line i.e. squamous cancer cell lines: selected

## Cc1ccc(-c2nnc3sc(C4CCc5cc(F)ccc5O4)nn23)cc1 (stereo not drawn) [TN-4, 6-(6-fluorochroman-2-yl)-3-p-tolyl-[1,2,4]triazolo[3,4-b][1,3,4]thiadiazole]
[1]
  selected as specific to cervical cancer cell line i.e. squamous cancer cell lines: selected

## Clc1ccc(-c2nnc3sc(-c4cccc(Cl)c4Cl)nn23)cc1 [NC-5, 6-(2,3-dichlorophenyl)-3-(4-chlorophenyl)-[1,2,4]triazolo[3,4-b][1,3,4]thiadiazole]
H2AX
  H2AX phosphorylation (western blot of isolated histones): hyperphosphorylated
[1]
  selected as specific to cervical cancer cell line i.e. squamous cancer cell lines: selected

## Fc1ccc2c(c1)CCC(c1nn3c(-c4ccccc4)nnc3s1)O2 (stereo not drawn) [TN-3, 6-(6-fluorochroman-2-yl)-3-phenyl-[1,2,4]triazolo[3,4-b][1,3,4]thiadiazole]
[1]
  selected as specific to cervical cancer cell line i.e. squamous cancer cell lines: selected

## Fc1ccc2c(c1)CCC(c1nn3c(-c4ccc(Cl)cc4)nnc3s1)O2 (stereo not drawn) [TN-5, 3-(4-chlorophenyl)-6-(6-fluorochroman-2-yl)-[1,2,4]triazolo[3,4-b][1,3,4]thiadiazole]
Breast cancer
  extent of apoptosis: little apoptosis

## Nc1nncs1
[2]
  activity in previously treated cervical carcinoma patients: minimal activity
[2]; [3]
  patients with increasing disease: 14
  patients with partial response: One
  patients with stable disease: six
